Experiment [1] has as its target T1, WbDHFR (Wuchereria bancrofti, UniProt J9F199). The format is biochemical. The method, then:
Compounds (-)-epicatechin, (-)-epicatechin gallate, and vitexin were tested as inhibitors of WbDHFR and BmDHFR. The compounds (-)-epicatechin and (-)-epicatechin gallate were synthesized as described previously. […] Disappearance of DHF and NADPH was observed by measuring absorbance at 340 nm to measure the DHFR activity in a SpectraMax M3 microplate reader. […] All experiments were completed in triplicate.

Experiment [2] has as its target T1, WbDHFR. The method, then: To determine the mechanism of inhibition, Dixon plots were created and analyzed for the inhibitors against WbDHFR. We determined WbDHFR activity as described above at DHF concentrations of 2 μM, 4 μM, and 8 μM in 200 μL reaction volumes. WbDHFR (6 nM) and 100 μM NADPH cofactor were included in 1 X MTEN buffer at pH 6.0. […] The reciprocal initial velocities were plotted against inhibitor concentration for each substrate in Excel to create the Dixon plots. Substrate trend-lines were extended to calculate the intersection point,–KI. Each Dixon plot was generated in triplicate.
A linear equation was fitted to the data at each substrate concentration. […] The KI values for BmDHFR in Table 1 were obtained using the Cheng-Prusoff Equation [18]. […] Inhibitor structures are shown in supporting information (S2 Fig).

Setting [3] is: read-out: IC50 WbDHFR, pH 6.0, 100 μM NADPH, 50 μM DHF, 12.1 nM WbDHFR, average of triplicates ± S.D.
[4] abbreviates: read-out: KI Trial 1, WbDHFR, individual trial, Dixon plot.
[5] abbreviates: read-out: KI Trial 2, WbDHFR, individual trial, Dixon plot.
The mark [6] stands for this setting: read-out: KI Trial 3, WbDHFR, individual trial, Dixon plot.
Setting [7] is: read-out: KI WbDHFR, from Dixon plots, 6 nM WbDHFR, 100 μM NADPH, DHF 2, 4, 8 μM, pH 6.0, ± S.D.
Where [8] appears, read: read-out: IC50 against WbDHFR Average, average of three trials.
Where [9] appears, read: read-out: IC50 against WbDHFR Trial 1, individual trial.
The mark [10] stands for this setting: read-out: IC50 against WbDHFR Trial 2, individual trial.
Where [11] appears, read: read-out: IC50 against WbDHFR Trial 3, individual trial.
Setting [12] is: read-out: Average KI, WbDHFR, average of three trials, Dixon plots.

Where two headings read alike, the source gives them in different places. Where only a bound is given, the exact number is not on record here.

The term IC50 denotes the concentration at which inhibition is half-maximal. Turning to `Oc1cc(O)c2c(c1)O[C@H](c1ccc(O)c(O)c1)[C@H](O)C2` [(-)-Epicatechin, (-)-epicatechin], the IC50 on WbDHFR [1] (setting [3]) is more than 2500 µM.

Usually Ki stands for a dissociation constant, usually derived from enzyme kinetics or from competition with a known ligand. On to `Nc1nc(N)c2nc(CNc3ccc(C(=O)N[C@@H](CCC(=O)O)C(=O)O)cc3)cnc2n1` [Aminopterin, aminopterin], for which the Ki on WbDHFR [2] (setting [4]) is 0.0026 µM; at WbDHFR [2] (setting [5]), 0.00219 µM; on WbDHFR [2] (setting [6]), 0.0016 µM; on WbDHFR [2] (read-out: KI WbDHFR, as stated in text (abstract, discussion)), 0.0021 ± 0.0005 µM; at WbDHFR [2] (setting [7]), 0.0021 ± 0.0005 µM. Further, the IC50 at WbDHFR [1] (setting [3]) came out at 0.014 ± 0.005 µM; at WbDHFR [1] (setting [8]), 0.0144 µM; on WbDHFR [1] (setting [9]), 0.0203 µM; at WbDHFR [1] (setting [10]) it was 0.00996 µM; on WbDHFR [1] (setting [11]) it was 0.013 µM.

Regarding `Cc1nc2ccc(CN(C)c3ccc(C(=O)N[C@@H](CCC(=O)O)C(=O)O)s3)cc2c(=O)[nH]1` [Raltitrexed, raltitrexed], the inhibitory constant (Ki) on WbDHFR [2] (setting [12]) worked out at 1.6 µM; at WbDHFR [2] (setting [4]), 0.536 µM; at WbDHFR [2] (setting [5]), 1.09 µM; at WbDHFR [2] (setting [6]) it was 3.32 µM. The IC50 came out at 18 ± 10 µM at WbDHFR [1] (setting [3]); 17.8 µM at WbDHFR [1] (setting [8]); 28.6 µM at WbDHFR [1] (setting [9]); 11.7 µM at WbDHFR [1] (setting [10]); 13 µM on WbDHFR [1] (setting [11]).

With `CCc1nc(N)nc(N)c1-c1ccc(Cl)cc1` [Pyrimethamine, pyrimethamine], the Ki is 15 µM on WbDHFR [2] (setting [12]); 20.3 µM at WbDHFR [2] (setting [4]); 15.9 µM at WbDHFR [2] (setting [5]); 8.89 µM on WbDHFR [2] (setting [6]); 15 ± 6 µM at WbDHFR [2] (setting [7]). Further, the IC50 on WbDHFR [1] (setting [3]) was 454 ± 37 µM; on WbDHFR [1] (setting [8]) it was 454 µM; at WbDHFR [1] (setting [9]), 449 µM; at WbDHFR [1] (setting [10]), 494 µM; at WbDHFR [1] (setting [11]), 420 µM.

Turning to `O=c1cc(-c2ccc(O)cc2)oc2c([C@@H]3O[C@H](CO)[C@@H](O)[C@H](O)[C@H]3O)c(O)cc(O)c12` [Vitexin, vitexin], at WbDHFR [1] (setting [3]), the IC50 was more than 240 µM.
